# Reference: patent publication US20260055104A1, “CRYSTAL FORM OF HETEROARYL DERIVATIVE PARP INHIBITOR AND USE THEREOF” (priority 2022, published 2026)
# Columns and labels:
# [1] = tested on: Human breast cancer cells MDA-MB-436; test: MDA-MB-436 cell activity test (CellTiter-Glo); assay type: cell-based; conditions: 168 h, MDA-MB-436, 7 days incubation
# Procedure: On day 1, the cells in the exponential growth phase were collected, and the cell suspension was adjusted to 4000 cells/135 μL with the culture medium. 135 μL of the cell suspension was added to each well of a 96-well cell culture plate and incubated overnight. On day 2, compounds at different concentrations were added, and the plate was placed in the incubator and incubated for 7 days. After the incubation was completed, according to operation instructions for a CellTiter-Glo kit (Promega, G7573), 75 μL of CTG solution, which had already been pre-melted and equilibrated to room temperature, was added to each well, and the mixture was uniformly mixed for 2 min using a microplate shaker. The plate was placed at room temperature for 10 min, and then […] signal values were measured using an Envision2104 plate reader (PerkinElmer). […] The IC50 value was calculated using GraphPad Prism software.
# [2] = tested on: MDA-MB-436 subcutaneous transplanted tumor; test: Mouse MDA-MB-436 subcutaneous in vivo transplanted tumor model; parameters: species or system BALB/c nude mice
# Procedure: Human breast cancer cells MDA-MB-436 were placed in Leibovitz's L-15 medium (supplemented with 10 μg/mL insulin, 16 μg/mL glutathione, 10% fetal bovine serum and 1% penicillin-streptomycin solution) and cultured at 37° C. Conventional digestion treatment with trypsin was performed twice a week for passage. When the cell saturation was 80%-90%, and the number reached the requirement, the cells were harvested, counted, and inoculated. BALB/c nude mice (from Beijing Vital River Laboratory Animal Technology Co., Ltd.) were subcutaneously inoculated with 0.2 mL (10×10^6) of MDA-MB-436 cells (plus matrigel, with the volume ratio of 1:1) on the right back. When the average tumor volume reached about 180 mm^3, grouping and administration were performed (marked as Day 0). The solvent group was given 5% DMSO, 30% PEG400 and 65% of 20% sulfobutyl-β-cyclodextrin solution, and the administration group was given the compound (Day 0-Day 10:1 mg/kg; Day 11-Day 28:0.1 mg/kg). The administration frequency was once a day, the administration cycle was 29 days, and the drug withdrawal observation period was set to 14 days. After grouping, the tumor diameter was measured twice a week with a vernier caliper. The formula for calculating the tumor volume was: V=0.5×a×b^2, where a and b represented the long and short diameters of the tumor, respectively.
# [3] = Pharmacokinetic test in rats; assay type: in vivo, SD rats; conditions: rat, i.g. 10 mg/kg
# Procedure: • 1.1 Experimental animals: male SD rats, about 220 g, 6-8 weeks old, 6 rats/compound. Purchased from Chengdu Ddossy Experimental Animals Co., Ltd. • 1.2 Experimental design: on the day of the experiment, 6 SD rats were randomly grouped according to their body weights. The animals were fasted with water available for 12 to 14 h one day before the administration and were fed 4 h after the administration. [table] Before and after the administration, 0.15 mL of blood was taken from the orbit of the animals under isoflurane anesthesia and placed in an EDTAK2 centrifuge tube. The blood was centrifuged at 5000 rpm and 4° C. for 10 min to collect plasma. The blood collection time points for the intravenous administration group and intragastric administration group were: 0, 5 min, 15 min, 30 min, 1 h, 2 h, 4 h, 6 h, 8 h and 24 h. Before analysis and detection, all samples were stored at −80° C. The samples were analyzed quantitatively by LC-MS/MS.
# [4] = Stability test of crystal form (purity by HPLC); assay type: physicochemical
# Procedure: Samples were taken and tested at 92.5% RH, 40° C. and 60° C. respectively. The purity (represented by a percentage) was detected by HPLC.
# With regard to methods for preparing test solutions and conditions for detecting purity by HPLC, reference was made to Tables 13 and 14.
structure (smiles),measurement,setting,value
"CCc1cc2ncc(CN3CCN(c4ccc(C(=O)NC5CC5)nc4)CC3)cc2[nH]c1=O [Compound I, N-cyclopropyl-5-(4-((7-ethyl-6-oxo-5,6-dihydro-1,5-naphthyridin-3-yl)methyl)piperazin-1-yl)pyridine carboxamide]",inhibition at 10 µM,"[1]; 10 μM, read-out: Max inh. % 10 μM",89.4%
same,IC50,[1],2 nM
same,tumor growth after the drug withdrawal,[2]; 14 days drug withdrawal observation,did not grow again
same,body weight of the animals,"[2]; Day 0-10 1 mg/kg, Day 11-28 0.1 mg/kg, once a day",no significant decrease
same,TGI,"[2]; after 28 days of administration, Day 0-10 1 mg/kg, Day 11-28 0.1 mg/kg, once a day",119%
same,F,[3],98.8%
"CCc1cc2ncc(CN3CCN(c4ccc(C(=O)NC5CC5)nc4)CC3)cc2[nH]c1=O [crystal form G, N-cyclopropyl-5-(4-((7-ethyl-6-oxo-5,6-dihydro-1,5-naphthyridin-3-yl)methyl)piperazin-1-yl)pyridine carboxamide]",Maximum individual impurity,[4]; 0 d,0.494%
same,RRT 0.31 impurity,[4]; 0 d,0.494%
same,RRT 0.36 impurity,[4]; 0 d,0.071%
same,RRT 0.49 impurity,[4]; 0 d,0.170%
same,RRT 0.72 impurity,[4]; 0 d,0.248%
same,RRT 1.00 (purity by HPLC),[4]; 0 d,98.425%
same,RRT 1.14 impurity,[4]; 0 d,0.065%
same,RRT 1.33 impurity,[4]; 0 d,0.079%
same,Total impurity,[4]; 0 d,1.575%
same,Maximum individual impurity,[4]; 40° C.-6 d,0.438%
same,RRT 0.31 impurity,[4]; 40° C.-6 d,0.438%
same,RRT 0.36 impurity,[4]; 40° C.-6 d,0.097%
same,RRT 0.49 impurity,[4]; 40° C.-6 d,0.195%
same,RRT 0.72 impurity,[4]; 40° C.-6 d,0.241%
same,RRT 1.00 (purity by HPLC),[4]; 40° C.-6 d,98.494%
same,RRT 1.14 impurity,[4]; 40° C.-6 d,0.071%
same,RRT 1.33 impurity,[4]; 40° C.-6 d,0.069%
same,Total impurity,[4]; 40° C.-6 d,1.506%
same,Maximum individual impurity,[4]; 40° C.-10 d,0.507%
same,RRT 0.31 impurity,[4]; 40° C.-10 d,0.507%
same,RRT 0.36 impurity,[4]; 40° C.-10 d,0.100%
same,RRT 0.49 impurity,[4]; 40° C.-10 d,0.194%
same,RRT 0.72 impurity,[4]; 40° C.-10 d,0.232%
same,RRT 1.00 (purity by HPLC),[4]; 40° C.-10 d,98.459%
same,RRT 1.14 impurity,[4]; 40° C.-10 d,0.069%
same,RRT 1.33 impurity,[4]; 40° C.-10 d,0.061%
same,Total impurity,[4]; 40° C.-10 d,1.541%
same,Maximum individual impurity,[4]; 40° C.-30 d,0.467%
same,RRT 0.31 impurity,[4]; 40° C.-30 d,0.467%
same,RRT 0.36 impurity,[4]; 40° C.-30 d,0.115%
same,RRT 0.49 impurity,[4]; 40° C.-30 d,0.144%
same,RRT 0.72 impurity,[4]; 40° C.-30 d,0.252%
same,RRT 1.00 (purity by HPLC),[4]; 40° C.-30 d,98.519%
same,RRT 1.14 impurity,[4]; 40° C.-30 d,0.077%
same,RRT 1.33 impurity,[4]; 40° C.-30 d,0.060%
same,Total impurity,[4]; 40° C.-30 d,1.481%
same,Maximum individual impurity,[4]; 60° C.-6 d,0.452%
same,RRT 0.31 impurity,[4]; 60° C.-6 d,0.452%
same,RRT 0.36 impurity,[4]; 60° C.-6 d,0.097%
same,RRT 0.49 impurity,[4]; 60° C.-6 d,0.193%
same,RRT 0.72 impurity,[4]; 60° C.-6 d,0.229%
same,RRT 1.00 (purity by HPLC),[4]; 60° C.-6 d,98.522%
same,RRT 1.14 impurity,[4]; 60° C.-6 d,0.070%
same,RRT 1.33 impurity,[4]; 60° C.-6 d,0.064%
same,Total impurity,[4]; 60° C.-6 d,1.478%
same,Maximum individual impurity,[4]; 60° C.-10 d,0.498%
same,RRT 0.31 impurity,[4]; 60° C.-10 d,0.498%
same,RRT 0.36 impurity,[4]; 60° C.-10 d,0.103%
same,RRT 0.49 impurity,[4]; 60° C.-10 d,0.206%
same,RRT 0.72 impurity,[4]; 60° C.-10 d,0.247%
same,RRT 1.00 (purity by HPLC),[4]; 60° C.-10 d,98.447%
same,RRT 1.14 impurity,[4]; 60° C.-10 d,0.068%
same,RRT 1.33 impurity,[4]; 60° C.-10 d,0.069%
same,Total impurity,[4]; 60° C.-10 d,1.553%
same,Maximum individual impurity,[4]; 60° C.-30 d,0.457%
same,RRT 0.31 impurity,[4]; 60° C.-30 d,0.457%
same,RRT 0.36 impurity,[4]; 60° C.-30 d,0.112%
same,RRT 0.49 impurity,[4]; 60° C.-30 d,0.145%
same,RRT 0.72 impurity,[4]; 60° C.-30 d,0.244%
same,RRT 1.00 (purity by HPLC),[4]; 60° C.-30 d,98.499%
same,RRT 1.14 impurity,[4]; 60° C.-30 d,0.084%
same,RRT 1.33 impurity,[4]; 60° C.-30 d,0.056%
same,Total impurity,[4]; 60° C.-30 d,1.501%
same,chemical stability,"[4]; 92.5% RH, 40° C. and 60° C., up to 30 d",good chemical stability
same,Maximum individual impurity,[4]; 92.5% RH-6 d,0.468%
same,RRT 0.31 impurity,[4]; 92.5% RH-6 d,0.468%
same,RRT 0.36 impurity,[4]; 92.5% RH-6 d,0.107%
same,RRT 0.49 impurity,[4]; 92.5% RH-6 d,0.191%
same,RRT 0.72 impurity,[4]; 92.5% RH-6 d,0.244%
same,RRT 1.00 (purity by HPLC),[4]; 92.5% RH-6 d,98.503%
same,RRT 1.14 impurity,[4]; 92.5% RH-6 d,0.068%
same,RRT 1.33 impurity,[4]; 92.5% RH-6 d,0.066%
same,Total impurity,[4]; 92.5% RH-6 d,1.497%
same,Maximum individual impurity,[4]; 92.5% RH-10 d,0.518%
same,RRT 0.31 impurity,[4]; 92.5% RH-10 d,0.518%
same,RRT 0.36 impurity,[4]; 92.5% RH-10 d,0.110%
same,RRT 0.49 impurity,[4]; 92.5% RH-10 d,0.206%
same,RRT 0.72 impurity,[4]; 92.5% RH-10 d,0.246%
same,RRT 1.00 (purity by HPLC),[4]; 92.5% RH-10 d,98.358%
same,RRT 1.14 impurity,[4]; 92.5% RH-10 d,0.073%
same,RRT 1.33 impurity,[4]; 92.5% RH-10 d,0.066%
same,Total impurity,[4]; 92.5% RH-10 d,1.642%
same,Maximum individual impurity,[4]; 92.5% RH-30 d,0.475%
same,RRT 0.31 impurity,[4]; 92.5% RH-30 d,0.475%
same,RRT 0.36 impurity,[4]; 92.5% RH-30 d,0.099%
same,RRT 0.49 impurity,[4]; 92.5% RH-30 d,0.137%
same,RRT 0.72 impurity,[4]; 92.5% RH-30 d,0.243%
same,RRT 1.00 (purity by HPLC),[4]; 92.5% RH-30 d,98.499%
same,RRT 1.14 impurity,[4]; 92.5% RH-30 d,0.075%
same,RRT 1.33 impurity,[4]; 92.5% RH-30 d,0.056%
same,Total impurity,[4]; 92.5% RH-30 d,1.501%
